In article PMC7206119, “RIP1 inhibition blocks inflammatory diseases but not tumor growth or metastases” (Cell Death and Differentiation, 2019):

Tests used:
Assay in all cases: biochemical
Parameters in all cases: DiscoverX kinase panel, active-site competition binding (KINOMEscan type), percent of control at one concentration
Conditions in all cases: competition binding, percent of control
CSNK2A1 = CSNK2A1 (Homo sapiens, UniProt P68400)
GSK3B = GSK3B (Homo sapiens, UniProt P49841)
[1] = target: T1, TYK2(JH2domain-pseudokinase) (Homo sapiens, UniProt P29597)
T1 construct: JH2domain-pseudokinase

HPK1 = target: T2, HPK1 (Homo sapiens, UniProt Q92918)
T2 construct: gene MAP4K1
T2 sequence (Q92918 whole entry): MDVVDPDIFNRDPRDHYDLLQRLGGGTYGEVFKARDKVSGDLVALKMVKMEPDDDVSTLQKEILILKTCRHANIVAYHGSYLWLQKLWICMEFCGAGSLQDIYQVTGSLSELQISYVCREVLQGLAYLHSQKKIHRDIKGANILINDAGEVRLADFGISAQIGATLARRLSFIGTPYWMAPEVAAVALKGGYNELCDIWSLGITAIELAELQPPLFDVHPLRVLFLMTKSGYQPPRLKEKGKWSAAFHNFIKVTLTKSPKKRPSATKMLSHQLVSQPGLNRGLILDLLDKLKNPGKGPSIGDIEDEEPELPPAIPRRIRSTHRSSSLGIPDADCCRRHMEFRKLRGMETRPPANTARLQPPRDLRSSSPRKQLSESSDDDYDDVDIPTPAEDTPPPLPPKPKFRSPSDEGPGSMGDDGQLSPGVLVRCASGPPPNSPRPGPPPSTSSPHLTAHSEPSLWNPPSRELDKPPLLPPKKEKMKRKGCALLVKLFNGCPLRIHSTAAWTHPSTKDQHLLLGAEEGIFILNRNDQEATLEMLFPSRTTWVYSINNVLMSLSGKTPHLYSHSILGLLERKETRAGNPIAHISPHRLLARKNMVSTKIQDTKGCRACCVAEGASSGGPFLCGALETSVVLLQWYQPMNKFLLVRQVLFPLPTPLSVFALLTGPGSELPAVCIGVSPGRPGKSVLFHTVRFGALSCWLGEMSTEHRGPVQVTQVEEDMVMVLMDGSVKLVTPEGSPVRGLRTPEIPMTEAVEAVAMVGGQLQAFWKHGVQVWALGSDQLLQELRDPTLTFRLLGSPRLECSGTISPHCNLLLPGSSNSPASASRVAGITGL

[2] = target: T3, ABL1(Q252H)-phosphorylated (Homo sapiens, UniProt P00519, Q252H)
T3 construct: phosphorylated

MEK4 = target: T4, MEK4 (Homo sapiens, UniProt P45985)
T4 construct: gene MAP2K4
T4 sequence (P45985 whole entry): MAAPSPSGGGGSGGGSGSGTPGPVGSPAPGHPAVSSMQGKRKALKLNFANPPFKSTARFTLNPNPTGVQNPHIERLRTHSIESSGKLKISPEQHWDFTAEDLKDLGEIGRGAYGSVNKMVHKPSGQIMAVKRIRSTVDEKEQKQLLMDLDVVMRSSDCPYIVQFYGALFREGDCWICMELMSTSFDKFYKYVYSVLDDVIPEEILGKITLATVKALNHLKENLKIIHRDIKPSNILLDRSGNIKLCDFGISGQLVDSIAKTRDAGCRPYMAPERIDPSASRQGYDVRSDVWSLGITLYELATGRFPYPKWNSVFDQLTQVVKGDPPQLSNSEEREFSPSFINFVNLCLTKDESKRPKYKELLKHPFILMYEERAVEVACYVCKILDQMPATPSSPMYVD

CSF1R-autoinhibited = CSF1R-autoinhibited (Homo sapiens, UniProt P07333)
Chain of CSF1R-autoinhibited (P07333 whole entry): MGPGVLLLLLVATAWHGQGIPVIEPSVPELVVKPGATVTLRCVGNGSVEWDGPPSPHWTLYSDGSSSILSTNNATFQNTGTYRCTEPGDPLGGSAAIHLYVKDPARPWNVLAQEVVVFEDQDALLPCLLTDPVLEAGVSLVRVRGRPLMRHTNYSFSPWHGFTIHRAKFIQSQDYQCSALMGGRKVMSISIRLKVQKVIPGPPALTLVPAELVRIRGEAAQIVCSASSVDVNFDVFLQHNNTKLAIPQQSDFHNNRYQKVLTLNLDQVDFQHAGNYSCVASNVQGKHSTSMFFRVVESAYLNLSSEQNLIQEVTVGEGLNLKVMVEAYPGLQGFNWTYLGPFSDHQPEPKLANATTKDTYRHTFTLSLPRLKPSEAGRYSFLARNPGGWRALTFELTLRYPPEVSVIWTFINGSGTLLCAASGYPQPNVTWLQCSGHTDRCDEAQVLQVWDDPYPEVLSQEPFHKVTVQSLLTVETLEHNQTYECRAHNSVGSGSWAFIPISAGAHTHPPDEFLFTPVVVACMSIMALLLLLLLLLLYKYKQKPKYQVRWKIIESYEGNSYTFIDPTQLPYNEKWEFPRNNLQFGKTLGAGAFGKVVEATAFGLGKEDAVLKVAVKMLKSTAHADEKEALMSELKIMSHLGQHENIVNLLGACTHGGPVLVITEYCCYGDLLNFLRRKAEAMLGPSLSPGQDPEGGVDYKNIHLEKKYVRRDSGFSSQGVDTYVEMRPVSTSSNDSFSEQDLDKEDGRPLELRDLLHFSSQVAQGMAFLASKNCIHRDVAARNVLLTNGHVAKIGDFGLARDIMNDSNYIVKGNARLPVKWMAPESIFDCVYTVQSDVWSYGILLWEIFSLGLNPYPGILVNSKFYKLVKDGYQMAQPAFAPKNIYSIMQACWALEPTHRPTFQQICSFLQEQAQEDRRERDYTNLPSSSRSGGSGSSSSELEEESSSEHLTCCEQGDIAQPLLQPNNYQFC

CHEK1 = CHEK1 (Homo sapiens, UniProt O14757)
CDK8 = CDK8 (Homo sapiens, UniProt P49336)
Chain of CDK8 (P49336 whole entry): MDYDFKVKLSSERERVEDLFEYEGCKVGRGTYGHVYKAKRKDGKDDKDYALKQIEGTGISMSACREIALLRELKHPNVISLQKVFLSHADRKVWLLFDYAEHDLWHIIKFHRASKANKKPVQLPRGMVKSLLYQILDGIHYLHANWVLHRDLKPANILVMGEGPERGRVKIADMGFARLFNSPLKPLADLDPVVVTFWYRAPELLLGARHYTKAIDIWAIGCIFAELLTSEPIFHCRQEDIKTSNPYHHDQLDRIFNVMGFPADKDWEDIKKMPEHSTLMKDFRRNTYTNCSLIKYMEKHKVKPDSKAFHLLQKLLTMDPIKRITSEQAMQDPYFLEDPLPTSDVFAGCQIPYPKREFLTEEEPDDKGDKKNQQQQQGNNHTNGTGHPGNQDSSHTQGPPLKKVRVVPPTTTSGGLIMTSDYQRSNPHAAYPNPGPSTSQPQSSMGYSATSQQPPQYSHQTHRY

YANK3 = target: T5, YANK3 (Homo sapiens, UniProt Q86UX6)
T5 construct: gene STK32C

ABL1-phosphorylated = target: T6, ABL1-phosphorylated (Homo sapiens, UniProt P00519)
T6 construct: phosphorylated

PAK4 = PAK4 (Homo sapiens, UniProt O96013)
PRKD3 = PRKD3 (Homo sapiens, UniProt O94806)
MKNK1 = MKNK1 (Homo sapiens, UniProt Q9BUB5)
PIM2 = PIM2 (Homo sapiens, UniProt Q9P1W9)
PFTK1 = target: T7, PFTK1 (Homo sapiens, UniProt O94921)
T7 construct: gene CDK14

TLK1 = TLK1 (Homo sapiens, UniProt Q9UKI8)
[3] = target: T8, RPS6KA4(Kin.Dom.2-C-terminal) (Homo sapiens, UniProt O75676)
T8 construct: Kin.Dom.2-C-terminal

HIPK2 = HIPK2 (Homo sapiens, UniProt Q9H2X6)
Chain of HIPK2 (Q9H2X6 whole entry): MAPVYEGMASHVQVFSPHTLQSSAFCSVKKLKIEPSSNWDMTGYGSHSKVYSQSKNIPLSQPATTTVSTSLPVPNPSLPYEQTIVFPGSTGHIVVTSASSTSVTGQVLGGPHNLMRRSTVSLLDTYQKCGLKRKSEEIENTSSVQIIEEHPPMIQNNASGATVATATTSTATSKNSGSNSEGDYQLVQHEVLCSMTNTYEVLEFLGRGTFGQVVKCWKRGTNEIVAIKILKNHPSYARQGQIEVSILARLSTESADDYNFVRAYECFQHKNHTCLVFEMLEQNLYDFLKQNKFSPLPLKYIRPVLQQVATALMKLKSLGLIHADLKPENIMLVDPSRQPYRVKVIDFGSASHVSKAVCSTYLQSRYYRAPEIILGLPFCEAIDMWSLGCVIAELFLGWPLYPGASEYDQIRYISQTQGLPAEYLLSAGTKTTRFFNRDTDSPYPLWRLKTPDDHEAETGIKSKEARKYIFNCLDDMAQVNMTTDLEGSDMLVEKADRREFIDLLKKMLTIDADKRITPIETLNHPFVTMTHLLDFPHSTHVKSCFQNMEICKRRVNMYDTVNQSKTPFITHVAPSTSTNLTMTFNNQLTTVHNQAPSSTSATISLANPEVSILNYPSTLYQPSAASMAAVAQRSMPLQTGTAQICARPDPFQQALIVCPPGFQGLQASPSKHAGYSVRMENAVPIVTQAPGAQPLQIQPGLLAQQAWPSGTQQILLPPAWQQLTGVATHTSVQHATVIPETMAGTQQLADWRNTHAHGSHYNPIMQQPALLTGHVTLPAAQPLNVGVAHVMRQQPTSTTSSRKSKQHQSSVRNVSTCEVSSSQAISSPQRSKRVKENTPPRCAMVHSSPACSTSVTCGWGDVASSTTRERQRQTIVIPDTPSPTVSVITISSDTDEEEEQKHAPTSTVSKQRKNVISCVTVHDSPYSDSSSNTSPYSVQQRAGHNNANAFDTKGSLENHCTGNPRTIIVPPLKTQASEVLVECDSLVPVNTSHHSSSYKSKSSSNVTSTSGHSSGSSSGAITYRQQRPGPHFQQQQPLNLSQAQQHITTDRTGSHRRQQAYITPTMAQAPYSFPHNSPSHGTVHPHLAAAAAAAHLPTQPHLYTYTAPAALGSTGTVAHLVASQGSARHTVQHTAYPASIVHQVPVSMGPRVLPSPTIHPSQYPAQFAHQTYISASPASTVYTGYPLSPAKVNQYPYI

[4] = target: T9, ABL1(M351T)-phosphorylated (Homo sapiens, UniProt P00519, M351T)
T9 construct: phosphorylated

YES = target: T10, YES (Homo sapiens, UniProt P07947)
T10 construct: gene YES1
T10 sequence (P07947 whole entry): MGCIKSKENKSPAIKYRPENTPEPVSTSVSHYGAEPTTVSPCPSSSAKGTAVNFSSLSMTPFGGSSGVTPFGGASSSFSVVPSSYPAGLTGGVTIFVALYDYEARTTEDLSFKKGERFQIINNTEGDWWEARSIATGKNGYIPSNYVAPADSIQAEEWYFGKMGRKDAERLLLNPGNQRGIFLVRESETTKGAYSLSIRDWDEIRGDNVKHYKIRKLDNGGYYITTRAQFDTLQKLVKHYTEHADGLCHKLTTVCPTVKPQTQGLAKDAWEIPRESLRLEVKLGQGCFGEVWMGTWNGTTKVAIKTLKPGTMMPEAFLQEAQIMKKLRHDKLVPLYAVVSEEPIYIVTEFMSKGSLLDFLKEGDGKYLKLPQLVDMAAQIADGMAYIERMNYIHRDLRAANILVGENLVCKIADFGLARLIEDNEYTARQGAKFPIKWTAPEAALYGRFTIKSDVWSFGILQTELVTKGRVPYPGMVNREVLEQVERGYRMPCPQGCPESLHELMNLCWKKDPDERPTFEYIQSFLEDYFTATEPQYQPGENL

Chain of GSK3B (P49841 whole entry): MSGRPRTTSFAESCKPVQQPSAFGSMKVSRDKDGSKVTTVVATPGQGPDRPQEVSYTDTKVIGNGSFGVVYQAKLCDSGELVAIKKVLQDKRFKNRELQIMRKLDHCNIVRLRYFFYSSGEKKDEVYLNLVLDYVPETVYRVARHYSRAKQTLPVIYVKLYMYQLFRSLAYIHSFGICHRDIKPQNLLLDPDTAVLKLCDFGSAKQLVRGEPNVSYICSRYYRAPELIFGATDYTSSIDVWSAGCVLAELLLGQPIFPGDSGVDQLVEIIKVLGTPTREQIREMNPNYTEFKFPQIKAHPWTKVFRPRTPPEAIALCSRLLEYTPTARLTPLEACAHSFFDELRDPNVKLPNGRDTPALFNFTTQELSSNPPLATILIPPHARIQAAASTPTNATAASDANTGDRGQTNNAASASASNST

SMILES: COc1cc2c(cn1)N(C)C(=O)[C@@H](NC(=O)c1nc3n(n1)[C@H](c1ccccc1)CC3)CC2 [GNE684, (S)-N-((S)-7-methoxy-1-methyl-2-oxo-2,3,4,5-tetrahydro-1H-pyrido[3,4-b]azepin-3-yl)-5-phenyl-6,7-dihydro-5H-pyrrolo[1,2-b][1,2,4]triazole-2-carboxamide]
- remaining binding at 10 µM (CSNK2A1): 93%
- remaining binding at 10 µM (GSK3B): 96%
- remaining binding at 10 µM [1]: 100%
- remaining binding at 10 µM (HPK1): 98%
- remaining binding at 10 µM [2]: 96%
- remaining binding at 10 µM (MEK4): 88%
- remaining binding at 10 µM (CSF1R-autoinhibited): 94%
- remaining binding at 10 µM (CHEK1): 100%
- remaining binding at 10 µM (CDK8): 97%
- remaining binding at 10 µM (YANK3): 93%
- remaining binding at 10 µM (ABL1-phosphorylated): 84%
- remaining binding at 10 µM (PAK4): 93%
- remaining binding at 10 µM (PRKD3): 100%
- remaining binding at 10 µM (MKNK1): 100%
- remaining binding at 10 µM (PIM2): 71%
- remaining binding at 10 µM (PFTK1): 79%
- remaining binding at 10 µM (TLK1): 97%
- remaining binding at 10 µM [3]: 100%
- remaining binding at 10 µM (HIPK2): 82%
- remaining binding at 10 µM [4]: 100%
- remaining binding at 10 µM (YES): 95%
